Measured values taken from patent publication US8198252B2, “SIRNA inhibition of PI3K P85, P110, and AKT2 and methods of use” (Board of Regents, The University of Texas System, priority 2006, dated 2012).

Tests used:
KM20-GFP cells = test: Liver metastasis establishment by cells transfected with siRNA in vitro; format: in vivo, mice; details: three weeks
Description: (§1) In Vivo Experiments. For in vivo studies, 4- to 6-week-old male nude^nu/nu mice were obtained from Harlan Sprague Dawley (Indianapolis, Ind.) and housed in clean, pathogen-free rooms in an environment with controlled temperature (22° C.), humidity, and a 12 hours light/dark cycle. The mice were fed standard chow (Formula Chow 5008; Purina Mills, St. Louis, Mo.) and tap water ad libitum and allowed to acclimate for 1 week. All studies were approved by the Institutional Animal Care and Use Committee of UTMB. Tumor cells were injected intrasplenically by methods previously described (Bruns et al., Neoplasia, 1:50-62 (1999)). Briefly, mice were anesthetized with halothane, a small left abdominal flank incision was created, and the spleen was exteriorized. Transfectants were harvested using only trypsin and resuspended as a single-cell suspension in Hanks Balanced Salt Solution, free of Mg^2+ and Ca^2+. Tumor cells (5×10^6 cells/400 μL) were injected into the spleen with a 27-gauge needle. The spleen was returned to the abdomen, and the wound was closed in one layer with wound clips. The mice were observed over the indicated time period using the Illumatool TLS (Lightools Research, Encinitas, Calif.). Animals were randomized into 3 experimental groups (5 animals per group) to receive p85α, p110α, or NTC siSTABLE siRNA (20 μg/mice, qod) by hydrodynamic tail vein injection (Watanabe et al., Gastroenterology, 128:1391-1404 (2005)) 24 hours after operation; mice were killed 35 days later. Experiments were performed in duplicate.
(§2) Methods of cells transfection and liver metastasis establishment are described in Example 1.
(§3) Akt2 is essential for colorectal cancer metastasis establishment. To determine whether Akt2 plays a causal role in colorectal cancer metastasis, we tested whether inhibition of Akt2 expression in the highly metastatic colorectal cancer cells would affect their metastatic ability. HT29^GFP or KM20^GFP cells were transfected with NTC (purchased from Dharmacon Inc.) or Akt2 siRNA (GUACUUCGAUGAUGAAUUU, SEQ ID NO:20) in vitro and inoculated intrasplenically (5×10^6) 60 hours later. To avoid intrasplenic tumor growth, the spleen was removed after 24 h. Animals were monitored individually for metastatic tumor growth using the Illumatool TLS. Three weeks after implantation the mice were sacrificed and the liver was examined for metastatic lesions by inspection of GFP fluorescence. […] In addition, the sizes of individual metastatic nodules present in the liver of both groups of mice were very similar. […] We also suspect that incomplete suppression of Akt2 by siRNA in a small subset of cells account for the residual ability of such cells to form liver metastasis.

HT29-GFP cells = test: as above; format: in vivo, mice; details: three weeks
Description: as §1, §2, §3

Akt2 = test: Western blot of Akt2 in the cells used for intrasplenic inoculation; format: cell-based, human; details: before (0 h) or after (2 h) surgical procedure
Description: Protein Preparation and Western Immunoblot. Western immunoblot analyses were performed as described previously (Wang et al., Clin Cancer Res. 8:1940-1947 (2002)). Cells were lysed with TNN buffer at 4° C. for 30 minutes. Lysates were clarified by centrifugation (10,000 g for 30 minutes at 4° C.) and protein concentrations determined using the method of Bradford (Bradford, Anal Biochem., 72:248-254 (1976)). Briefly, total protein (60 μg) was resolved on a 10% polyacrylamide gel and transferred to Immobilon-P […] membranes. Filters were incubated overnight at 4° C. in blotting solution (Tris-buffered saline containing 5% nonfat dried milk and 0.1% Tween 20), followed by a 1-hour incubation with primary antibodies. Filters were washed 3 times in a blocking solution and incubated with horseradish peroxidase-conjugated secondary antibodies for 1 hour. After 3 additional washes, the immune complexes were visualized by ECL detection.
Akt2 is essential for colorectal cancer metastasis establishment. […] Animals were monitored individually for metastatic tumor growth using the Illumatool TLS. Three weeks after implantation the mice were sacrificed and the liver was examined for metastatic lesions by inspection of GFP fluorescence. […]

[1] = 5×10^6 intrasplenically 60 hours later, compared with NTC siRNA

## GUACUUCGAUGAUGAAUUU [Akt2 siRNA]
KM20-GFP cells; [1]
  macroscopically visible metastases in the liver: formed very few metastases
KM20-GFP cells
  number of micrometastatic lesions in the liver (histological analysis): drastically reduced
  sizes of individual metastatic nodules in the liver, compared with NTC group: very similar
HT29-GFP cells; [1]
  macroscopically visible metastases in the liver: formed very few metastases
HT29-GFP cells
  number of micrometastatic lesions in the liver (histological analysis): drastically reduced
  sizes of individual metastatic nodules in the liver, compared with NTC group: very similar
Akt2; HT29-GFP cells used for intrasplenic inoculation
  Akt2 expression: confirmed Akt2 downregulation
Akt2; KM20-GFP cells used for intrasplenic inoculation
  Akt2 expression: confirmed Akt2 downregulation
